In ChEMBL document CHEMBL1146931, “Inhibitors of VEGF receptors-1 and -2 based on the 2-((pyridin-4-yl)ethyl)pyridine template” (Bioorg Med Chem Lett, 2006):

What was measured:
[1] = molecular target: Vascular endothelial growth factor receptor 1 (Homo sapiens, UniProt P17948)
Description: Inhibition of VEGFR1 phosphorylation in presence of 2 uM ATP by HTRF assay

[2] = molecular target: T1, Vascular endothelial growth factor receptor 2 (Homo sapiens, UniProt P35968)
Description: Inhibition of VEGFR2 phosphorylation in presence of 2 uM ATP by HTRF assay

[3] = molecular target: T1, Vascular endothelial growth factor receptor 2; assay: Inhibition of VEGFR2 phosphorylation in HEK293 cells by cell-based ELISA
[4] = test system: Caco-2; assay: Intrinsic permeability in Caco-2 cells; settings: human
[5] = molecular target: T1, Vascular endothelial growth factor receptor 2; assay: Binding affinity to VEGFR2 at 0.043 uM
[6] = molecular target: T1, Vascular endothelial growth factor receptor 2; assay: Binding affinity to VEGFR2 at 0.031 uM
[7] = molecular target: T1, Vascular endothelial growth factor receptor 2; assay: Binding affinity to VEGFR2 at 0.058 uM

Chain of Vascular endothelial growth factor receptor 1 (P17948 whole entry): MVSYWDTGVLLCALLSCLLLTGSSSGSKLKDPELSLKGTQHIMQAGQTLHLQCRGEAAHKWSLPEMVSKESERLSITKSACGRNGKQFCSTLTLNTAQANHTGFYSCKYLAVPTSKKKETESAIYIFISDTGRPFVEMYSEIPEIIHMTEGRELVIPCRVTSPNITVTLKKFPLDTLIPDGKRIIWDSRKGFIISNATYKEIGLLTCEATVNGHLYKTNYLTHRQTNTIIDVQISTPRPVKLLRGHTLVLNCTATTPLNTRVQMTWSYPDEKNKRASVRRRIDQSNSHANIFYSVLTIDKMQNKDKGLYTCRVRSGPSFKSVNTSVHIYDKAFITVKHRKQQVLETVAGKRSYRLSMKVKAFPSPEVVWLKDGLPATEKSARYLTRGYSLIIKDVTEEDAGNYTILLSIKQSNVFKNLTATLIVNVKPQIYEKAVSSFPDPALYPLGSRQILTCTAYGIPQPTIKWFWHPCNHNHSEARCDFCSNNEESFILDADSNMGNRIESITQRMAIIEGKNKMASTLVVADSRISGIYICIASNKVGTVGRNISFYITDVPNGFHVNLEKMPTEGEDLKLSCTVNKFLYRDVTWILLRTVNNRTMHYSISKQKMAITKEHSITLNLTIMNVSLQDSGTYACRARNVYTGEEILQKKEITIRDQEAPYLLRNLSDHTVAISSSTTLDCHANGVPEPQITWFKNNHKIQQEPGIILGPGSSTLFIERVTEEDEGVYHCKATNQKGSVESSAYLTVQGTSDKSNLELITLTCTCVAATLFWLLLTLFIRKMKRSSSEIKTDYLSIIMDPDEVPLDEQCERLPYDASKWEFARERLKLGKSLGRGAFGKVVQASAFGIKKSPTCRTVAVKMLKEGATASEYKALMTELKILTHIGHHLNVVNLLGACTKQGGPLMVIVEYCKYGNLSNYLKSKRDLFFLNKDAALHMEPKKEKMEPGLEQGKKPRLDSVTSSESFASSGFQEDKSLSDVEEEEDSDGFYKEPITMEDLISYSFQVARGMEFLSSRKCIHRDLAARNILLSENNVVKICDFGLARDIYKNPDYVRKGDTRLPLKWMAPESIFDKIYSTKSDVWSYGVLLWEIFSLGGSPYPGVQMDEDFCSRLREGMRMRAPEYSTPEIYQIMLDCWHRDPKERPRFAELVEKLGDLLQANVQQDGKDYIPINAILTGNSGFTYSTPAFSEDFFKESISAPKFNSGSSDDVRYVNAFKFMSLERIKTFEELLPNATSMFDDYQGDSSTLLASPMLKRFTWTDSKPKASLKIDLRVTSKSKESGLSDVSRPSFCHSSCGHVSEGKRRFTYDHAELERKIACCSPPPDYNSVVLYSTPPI
T1 sequence (P35968 whole entry): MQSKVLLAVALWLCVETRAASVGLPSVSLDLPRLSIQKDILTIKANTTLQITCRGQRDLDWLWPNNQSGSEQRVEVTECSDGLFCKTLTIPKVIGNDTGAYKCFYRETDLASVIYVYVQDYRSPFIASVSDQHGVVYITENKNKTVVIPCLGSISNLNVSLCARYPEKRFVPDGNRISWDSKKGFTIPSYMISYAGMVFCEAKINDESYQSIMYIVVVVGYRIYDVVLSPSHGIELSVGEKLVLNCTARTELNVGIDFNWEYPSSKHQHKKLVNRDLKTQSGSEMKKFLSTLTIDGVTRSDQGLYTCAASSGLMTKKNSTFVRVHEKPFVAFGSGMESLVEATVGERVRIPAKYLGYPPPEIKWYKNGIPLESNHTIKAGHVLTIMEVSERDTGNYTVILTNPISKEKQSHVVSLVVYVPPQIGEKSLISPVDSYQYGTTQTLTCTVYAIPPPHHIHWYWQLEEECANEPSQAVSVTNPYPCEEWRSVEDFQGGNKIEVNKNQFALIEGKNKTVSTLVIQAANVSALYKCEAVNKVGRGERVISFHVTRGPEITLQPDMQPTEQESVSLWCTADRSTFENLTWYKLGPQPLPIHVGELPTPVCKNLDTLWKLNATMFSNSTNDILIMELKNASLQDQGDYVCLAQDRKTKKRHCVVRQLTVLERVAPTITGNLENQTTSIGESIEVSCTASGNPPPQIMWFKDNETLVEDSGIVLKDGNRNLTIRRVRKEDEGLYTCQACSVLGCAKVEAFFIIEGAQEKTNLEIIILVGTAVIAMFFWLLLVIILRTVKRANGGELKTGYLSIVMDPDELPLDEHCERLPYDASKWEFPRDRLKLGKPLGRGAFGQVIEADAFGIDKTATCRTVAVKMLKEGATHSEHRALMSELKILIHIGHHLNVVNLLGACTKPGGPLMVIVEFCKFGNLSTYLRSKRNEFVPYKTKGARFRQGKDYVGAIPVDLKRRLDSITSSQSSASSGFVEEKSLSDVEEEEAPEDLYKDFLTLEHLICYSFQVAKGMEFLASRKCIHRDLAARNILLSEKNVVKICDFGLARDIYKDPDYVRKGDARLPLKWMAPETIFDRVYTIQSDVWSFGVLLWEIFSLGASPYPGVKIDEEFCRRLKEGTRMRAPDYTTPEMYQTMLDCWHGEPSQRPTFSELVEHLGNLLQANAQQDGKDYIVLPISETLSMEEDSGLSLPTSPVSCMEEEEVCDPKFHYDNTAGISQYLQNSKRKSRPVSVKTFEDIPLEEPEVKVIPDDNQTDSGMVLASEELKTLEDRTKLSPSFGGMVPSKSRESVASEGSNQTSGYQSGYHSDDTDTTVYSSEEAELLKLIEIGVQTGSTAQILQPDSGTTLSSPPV

| Compound | IC50 [1] | IC50 [2] | IC50 ([3]; read-out: IC50) | Pm [4] | Ki [5] | IC50 ([3]; hek293) | Ki [6] | Ki [7] |
| --- | --- | --- | --- | --- | --- | --- | --- | --- |
| FC(F)(F)c1cccc(Nc2nnc(-c3cc4ccccc4nc3CCc3ccncc3)o2)c1 | > 10000 nM | > 10000 nM | > 10000 nM |  |  |  |  |  |
| FC(F)(F)c1cccc(Nc2nnc(-c3cccnc3CCc3cccc4ncccc34)o2)c1 | > 10000 nM | 5640 nM | > 10000 nM |  |  |  |  |  |
| FC(F)(F)c1cccc(Nc2nnc(-c3cnccc3CCc3ccncc3)o2)c1 | 1220 nM | 720 nM | 2540 nM |  |  |  |  |  |
| CC(C)(C)c1ccc(Nc2nnc(-c3cccnc3CCc3ccncc3)o2)cc1 | 770 nM | 43 nM | 63 nM |  | 130 nM |  |  |  |
| c1ccc(-c2ccc(Nc3nnc(-c4cccnc4CCc4ccncc4)o3)cc2)cc1 | > 10000 nM | 2630 nM |  |  |  |  |  |  |
| FC(F)(F)c1cccc(Nc2nnc(-c3ccncc3CCc3ccncc3)o2)c1 | 760 nM | 560 nM | 1110 nM |  |  |  |  |  |
| FC(F)(F)Oc1cccc(Nc2nnc(-c3ccncc3CCc3ccncc3)o2)c1 | 710 nM | 470 nM | 860 nM |  |  |  |  |  |
| O=C(Nc1cnc2ccccc2c1)c1ccccc1NCc1ccncc1 |  |  |  | 17.3 10^-5 cm/min |  |  |  |  |
| FC(F)(F)c1ccc(Nc2nnc(-c3ccncc3CCc3ccncc3)o2)cc1 | 840 nM | 290 nM | 720 nM |  |  |  |  |  |
| FC(F)(F)Oc1ccc(Nc2nnc(-c3ccncc3CCc3ccncc3)o2)cc1 | 930 nM | 350 nM | 660 nM |  |  |  |  |  |
| FC(F)(F)c1cccc(Nc2nnc(-c3cccnc3CCc3ccc4[nH]ncc4c3)o2)c1 | > 10000 nM | 3870 nM | > 10000 nM |  |  |  |  |  |
| Cc1cccc(Nc2nnc(-c3cccnc3CCc3ccncc3)o2)c1 | 1070 nM | 770 nM | 2140 nM |  |  |  |  |  |
| FC(F)(F)Oc1cccc(Nc2nnc(-c3cnccc3CCc3ccncc3)o2)c1 | 740 nM | 550 nM | 760 nM |  |  |  |  |  |
| Fc1ccc(CCc2ncccc2-c2nnc(Nc3cccc(C(F)(F)F)c3)o2)cc1F | > 10000 nM | > 10000 nM | > 10000 nM |  |  |  |  |  |
| FC(F)(F)c1cccc(Nc2nnc(-c3cccnc3CCc3ccc4ccccc4n3)o2)c1 | > 10000 nM | > 10000 nM | > 10000 nM |  |  |  |  |  |
| FC(F)(F)c1ccc(Nc2nnc(-c3cnccc3CCc3ccncc3)o2)cc1 | 670 nM | 440 nM | 740 nM |  |  |  |  |  |
| FC(F)(Cl)Oc1ccc(Nc2nnc(-c3ccncc3CCc3ccncc3)o2)cc1 | 810 nM | 220 nM | 530 nM |  |  |  |  |  |
| FC(F)(F)c1cccc(Nc2nnc(-c3cccnc3CCc3cccnc3)o2)c1 | > 10000 nM | > 10000 nM | > 10000 nM |  |  |  |  |  |
| FC(F)(Cl)Oc1ccc(Nc2nnc(-c3cccnc3CCc3ccncc3)o2)cc1 | 730 nM | 31 nM | 44 nM |  |  |  | 100 nM |  |
| Cc1ccccc1Nc1nnc(-c2cccnc2CCc2ccncc2)o1 | > 10000 nM | > 10000 nM |  |  |  |  |  |  |
| c1ccc2ncc(Nc3nnc(-c4cc5ccccc5nc4CCc4ccncc4)o3)cc2c1 | > 10000 nM | > 10000 nM |  |  |  |  |  |  |
| CC(C)(C)c1ccc(Nc2nnc(-c3cc4ccccc4nc3CCc3ccncc3)o2)cc1 | > 10000 nM | > 10000 nM |  |  |  |  |  |  |
| FC(F)(F)c1cccc(Nc2nnc(-c3cccnc3CCc3ccccn3)o2)c1 | > 10000 nM | > 10000 nM | > 10000 nM |  |  |  |  |  |

More lines, now with the values ahead:

| IC50 [1] | IC50 [2] | IC50 ([3]; read-out: IC50) | Pm [4] | Ki [5] | IC50 ([3]; hek293) | Ki [6] | Ki [7] | Compound |
| --- | --- | --- | --- | --- | --- | --- | --- | --- |
| 140 nM | 85 nM | 290 nM | 23.6 10^-5 cm/min |  |  |  |  | c1cnc(CCc2ccncc2)c(-c2nnc(NCc3ccc4c(c3)OCO4)o2)c1 |
| 220 nM | 64 nM | 110 nM |  |  |  |  |  | FC(F)(F)c1cccc(Nc2nnc(-c3cccnc3CCc3ccncc3)o2)c1 |
| 270 nM | 79 nM | 94 nM |  |  |  |  |  | Clc1ccc(Nc2nnc(-c3cccnc3CCc3ccncc3)o2)cc1Cl |
| 220 nM | 190 nM | 320 nM |  |  |  |  |  | CC(C)(C)c1ccc(Nc2nnc(-c3ccncc3CCc3ccncc3)o2)cc1 |
| 480 nM | 310 nM | 520 nM |  |  |  |  |  | CC(C)(C)c1ccc(Nc2nnc(-c3cnccc3CCc3ccncc3)o2)cc1 |
| 530 nM | 440 nM | 590 nM |  |  |  |  |  | FC(F)(Cl)Oc1ccc(Nc2nnc(-c3cnccc3CCc3ccncc3)o2)cc1 |
| 260 nM | 69 nM | 110 nM | 42.6 10^-5 cm/min |  |  |  |  | FC(F)(F)Oc1cccc(Nc2nnc(-c3cccnc3CCc3ccncc3)o2)c1 |
| 500 nM | 170 nM | 290 nM |  |  |  |  |  | COc1cccc(Nc2nnc(-c3cccnc3CCc3ccncc3)o2)c1 |
| 440 nM | 380 nM |  |  |  | Not Active |  |  | c1cnc(CCc2ccncc2)c(-c2nnc(Nc3cnc4ccccc4c3)o2)c1 |
| 620 nM | 51 nM | 75 nM |  |  |  |  |  | CC(C)c1ccc(Nc2nnc(-c3cccnc3CCc3ccncc3)o2)cc1 |
| 470 nM | 360 nM | 510 nM |  |  |  |  |  | FC(F)(F)Oc1ccc(Nc2nnc(-c3cnccc3CCc3ccncc3)o2)cc1 |
| 270 nM | 250 nM | 390 nM |  |  |  |  |  | CC(C)c1ccc(Nc2nnc(-c3ccncc3CCc3ccncc3)o2)cc1 |
| 180 nM | 67 nM | 110 nM |  |  |  |  |  | COc1ccc(Nc2nnc(-c3cccnc3CCc3ccncc3)o2)cc1OC |
| 120 nM | 87 nM | 92 nM |  |  |  |  |  | Cc1ccc(Nc2nnc(-c3cccnc3CCc3ccncc3)o2)cc1C(F)(F)F |
| 560 nM | 44 nM | 51 nM |  |  |  |  |  | FC(F)(F)Oc1ccc(Nc2nnc(-c3cccnc3CCc3ccncc3)o2)cc1 |
| 320 nM | 58 nM | 76 nM |  |  |  |  | 120 nM | FC(F)(F)c1ccc(Nc2nnc(-c3cccnc3CCc3ccncc3)o2)cc1 |
